US20180127465A1 (priority 2015, published 2018)

Key:
[1] = system: primary cortical neurons; format: cell-based
[2] = system: primary cortical neurons; format: cell-based; remark: listed apart in the source
[3] = system: primary cortical neurons; format: cell-based; remark: listed apart in the source
[4] = system: mouse middle cerebral artery occlusion (MCAO) stroke model; conditions: in vivo
[5] = system: mouse middle cerebral artery occlusion (MCAO) stroke model; conditions: in vivo; remark: listed apart in the source
[6] = system: primary cortical neurons; format: cell-based; remark: listed apart in the source

Row | Compound | neuronal cell death (LDH), in words [1] | relative neuronal survival (MTT), in words [2] | less LDH release [3] [%] | relative neuronal death (LDH), in words [3] | improvement of neurological score [4] [%] | Horizontal Activity [5] | No. of Movements [5] | Rest Time [5] [s] | Stereotypy Counts [5] | Total Distance [5] [CM] | Vertical Activity [5] | ROS production, in words [6]
1 | C[C@@H](NC(=O)[C@@H](N)Cc1ccc(O)cc1)C(=O)NCC(=O)N[C@@H](Cc1ccccc1)C(=O)NNC(=O)[C@H](Cc1ccccc1)NC(=O)CNC(=O)[C@@H](C)NC(=O)[C@@H](N)Cc1ccc(O)cc1 [biphalin] | significantly decreased neuronal cell death | significantly improved relative neuronal survival | 18.4 | significantly decreased relative neuronal death | 25.5 | 760 ± 75 | 42 ± 6 | 240 ± 7 | 390 ± 46 | 650 ± 81 | 28 ± 3 | –
2 | O=C1CC[C@@]2(O)[C@H]3Cc4ccc(O)c5c4[C@@]2(CCN3CC2CC2)[C@H]1O5 [NTX, naltrexone] | No statistical significant difference | – | – | – | – | – | – | – | – | – | – | did not show significant decrease in ROS production
